Reference: PMC6445228, “Synthesis and biological evaluation of anti-Toxoplasma gondii activity of a novel scaffold of thiazolidinone derivatives” (Journal of Enzyme Inhibition and Medicinal Chemistry, 2017)
Like-named read-outs stand apart in the source and are kept apart here.

What was measured:
[1] = test system: human foreskin fibroblast (HFF); experiment: Five-day growth inhibition assay, host cell cytotoxicity; conditions: 120 h
Description: (§1) Using published methods[8]^,[19], all of the prepared N-substituted thiazolidinones derivatives were evaluated in vitro for (i) host cell cytotoxicity as well as for the ability to inhibit tachyzoite growth over a period of 5 days (Table 1), for (ii) the ability to inhibit tachyzoite invasion of host cells (Figure 1), and for (iii) the ability to inhibit intracellular tachyzoite replication (Figure 2).
(§2) Compounds were tested for the ability to inhibit in vitro tachyzoite (T. gondii RH-2 F (50839); ATCC, VA) and human foreskin fibroblast (HFF; ATCC) growth for 120 h using a published colorimetric assay[8]^,[19]. Stock solutions of all compounds were 10 mM in DMSO. Serial 0.5 log10 dilutions (320–0.032 μM) of each compound were tested. Data from three separate experiments were analysed and the IC50, IC90, and TD50 calculated using Calcusyn software (Biosoft, Cambridge, UK). The therapeutic index (TI), a measure of specific anti-T. gondii activity, was calculated with the formula shown under Table 1.

[2] = test system: T. gondii RH-2 F tachyzoites; experiment: Five-day growth inhibition assay (tachyzoite growth, colorimetric); format: cell-based, Toxoplasma gondii; conditions: 120 h; for IC50: read-out: IC50, median inhibitory concentration, a measure of tachyzoite inhibition; for IC90: read-out: IC90, concentration at which 90% of the tachyzoite growth is inhibited
Description: as §1, §2
We explored the chemical space and the influence on the biological activity of different groups (substituted aromatic and bicyclic rings) at the lactam NH of the core nucleus. […] In the five-day growth inhibition assay, compounds were added only once, just before addition of tachyzoites, and thus were present for multiple cycles, up to 20, of parasite replication.

[3] = test system: extracellular T. gondii tachyzoites invading HFF host cells; experiment: Red/green invasion assay (immunofluorescence); format: cell-based, Toxoplasma gondii; conditions: 10 μM, 20 min preincubation, 1 h at 37 °C on HFF, vs vehicle, p ≤ .05
Description: Figure 1. Invasion assay of ferrocene-based thiazolidinone derivatives (10 μM). VHL: vehicle (DMSO). *Significant inhibition of tachyzoite invasion (p ≤ .05, two-tailed Students’ t test). **Significant inhibition of tachyzoite attachment (p ≤ .05, two-tailed Students’ t test). Data are compiled from results of three independent experiments.
The ferrocene-based derivatives (10 μM) were examined for activity directly on extracellular tachyzoites using an established immunofluorescence-based red/green invasion assay. This assay measures a compound’s ability to impede the parasite-driven host cell entry of tachyzoites through the host cell plasma membrane. Invaded (intracellular) tachyzoites are labelled green while tachyzoites attached to the surface, but unable to invade, are labelled red. A decrease in the number of invaded tachyzoites relative to vehicle [VHL (DMSO)] is indicative of invasion inhibition. A decrease in the number of invaded plus attached tachyzoites relative to same of VHL is indicative of inhibition of attachment. Data shown are mean values ± SEM of three independent experiments.
We next evaluated the ability of the ferrocene-based derivatives to act directly upon extracellular tachyzoites by using a standard red/green invasion assay. This assay interrogates compounds for inhibition of the first step in host cell infection, i.e. invasion and entry into susceptible cells. In this assay (Figure 1), cell-free purified tachyzoites were incubated with a test compound (10 μM), sulfadiazine (10 μM), or VHL for 20 min at room temperature before being added to HFF host cells. After allowing 1 h at 37 °C for the tachyzoites to attach and invade, the cells were processed by immunofluorescent staining. Extracellular/attached tachyzoites were labelled red while intracellular/penetrated tachyzoites were labelled green.

[4] = test system: intracellular T. gondii tachyzoites; experiment: Replication assay (immunofluorescence, tachyzoites per parasitophorous vacuole); format: cell-based, Toxoplasma gondii; conditions: 10 μM, added 2 h after infection, 24 h
Description: Figure 2. Replication assay of ferrocene-based thiazolidinone derivatives (10 μM). VHL: vehicle (DMSO); Tz: tachyzoites. Data are compiled from results of three independent experiments.
This assay measures a compound’s ability to inhibit tachyzoite replication over a period of 24 h. The numbers of parasitophorous vacuoles (PV) in experimentally treated infected cells containing 1, 2, 4, or 8 + tachyzoites/vacuole were enumerated, graphed, and compared to those of the VHL-treated infected cells. Data for each size vacuole are shown as the fraction of the total number of vacuoles counted in 10–15 fields. Data shown were compiled from three independent experiments. A decrease in the number of tachyzoites in a vacuole indicates inhibition of replication. Toxoplasma gondii tachyzoites only replicate within the PV inside the host cell with one cycle of replication taking 6–8 h. […] Consequently, a decrease in the number of intravacuolar tachyzoites relative to that of VHL indicates inhibition of replication. Specifically, predominance, i.e. the largest fraction of the total number, of PVs containing 1 or 2 tachyzoites indicates replication inhibition.
Lastly, the replication assay interrogates a compound’s ability to inhibit an established intracellular Toxoplasma infection over the relatively short period of 24 h (3–4 cycles of replication). […] Likewise, allowance of just one cycle of replication results in a majority of PVs containing just two tachyzoites. However, a predominance of PVs containing eight or more tachyzoites indicates absence of inhibitory activity over a 24 h period (see detailed explanation above in Experimental Protocols).

[5] = HFF cells, top concentration 320 μM
[6] = T. gondii RH-2 F in HFF, three experiments

Compound | TD50, median toxicity dose, a measure of cytotoxicity against host cells [1, 5] [µM] | IC50 [2, 6] [µM] | IC90 [2, 6] [µM] | Inhibition of tachyzoite attachment [3] | Inhibition of tachyzoite invasion [3] | Fraction of PVs containing eight or more tachyzoites [4] | Inhibition of intracellular tachyzoite replication [4] | TD50, median toxicity dose, a measure of cytotoxicity against host cells ([1]; human) [µM] | IC50 ([2]; Toxoplasma gondii) [µM] | IC90 ([2]; Toxoplasma gondii) [µM]
CC(=NN=C1SCC(=O)N1Cc1cccc2ccccc12)c1ccc[cH-]1.[Fe+2].c1cc[cH-]c1 [Compound 30, 3-(Naphthalen-1-ylmethyl)-2-((1-(ferrocen-2-yl)ethylidene)hydrazono)thiazolidin-4-one] | ≥320 | 5 | 17 | significantly inhibited attachment |  |  |  |  |  | 
CC(=NN=C1SCC(=O)N1Cc1ccccc1[N+](=O)[O-])c1ccc[cH-]1.[Fe+2].c1cc[cH-]c1 [Compound 3, 3-(2-Nitrobenzyl)-2-((1-(ferrocen-2-yl)ethylidene)hydrazono)thiazolidin-4-one] | ≥320 | 15 | 78 |  | notable exceptions |  |  |  |  | 
CC(=NN=C1SCC(=O)N1Cc1ccc(F)cc1)c1ccc[cH-]1.[Fe+2].c1cc[cH-]c1 [Compound 18, 3-(4-Fluorobenzyl)-2-((1-(ferrocen-2-yl)ethylidene)hydrazono)thiazolidin-4-one] | ≥320 | 6 | 16 |  |  | 10–18% | modest inhibition |  |  | 
CC(=NN=C1SCC(=O)N1Cc1ccccc1F)c1ccc[cH-]1.[Fe+2].c1cc[cH-]c1 [Compound 12, 3-(2-Fluorobenzyl)-2-((1-(ferrocen-2-yl)ethylidene)hydrazono)thiazolidin-4-one] | ≥320 | 17 | 64 |  |  | 10–18% | modest inhibition |  |  | 
CC(=NN=C1SCC(=O)N1Cc1cccc(F)c1)c1ccc[cH-]1.[Fe+2].c1cc[cH-]c1 [Compound 15, 3-(3-Fluorobenzyl)-2-((1-(ferrocen-2-yl)ethylidene)hydrazono)thiazolidin-4-one] | ≥320 | 8 | 57 | significantly inhibited attachment |  |  |  |  |  | 
CC(=NN=C1SCC(=O)N1Cc1ccc([N+](=O)[O-])cc1)c1ccc[cH-]1.[Fe+2].c1cc[cH-]c1 [Compound 9, 3-(4-Nitrobenzyl)-2-((1-(ferrocen-2-yl)ethylidene)hydrazono)thiazolidin-4-one] | 217 | 73 | 292 | significantly inhibited attachment |  |  |  |  |  | 
CC(=NN=C1SCC(=O)N1Cc1ccc(Cl)cc1)c1ccc[cH-]1.[Fe+2].c1cc[cH-]c1 [Compound 27, 3-(4-Chlorobenzyl)-2-((1-(ferrocen-2-yl)ethylidene)hydrazono)thiazolidin-4-one] | ≥320 | 10 | 55 |  | notable exceptions | ≤ 1% | fairly strong inhibition |  |  | 
Nc1ccc(S(=O)(=O)Nc2ncccn2)cc1 [Sulfadiazine, reference compound] |  |  |  |  |  |  | robust replication inhibition | 281 | 43 | 219
